Data reported in the supplement of paper PMC4862054.

Experiments:
Settings in all cases: incubation time: 72 h
BT-474 [1] = test: normalised viability (% of control), CellTiter-Blue; higher = more viable cells (about 100 = DMSO control)
Description: (§1)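 DSRT, CellTiter-Blue viability, 72 h incubation. Signal is normalised to DMSO and benzethonium chloride controls. Value is the normalised response at dose 3.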

CAL-120 = test: as above
Description: as §1

CAL-148 = test: as above
Description: as §1

CAL-51 = test: as above
Description: as §1

CAL-85-1 = test: as above
Description: as §1

DU-4475 [2] = test: as above
Description: as §1

HCC1143 = test: as above
Description: as §1

HCC1599 [3] = test: as above
Description: as §1

HCC1937 [4] = test: as above
Description: as §1

HDQ-P1 = test: as above
Description: as §1

MDA-MB-231 [5] = test: as above
Description: as §1

MDA-MB-453 [6] = test: as above
Description: as §1

MDA-MB-468 = test: as above
Description: as §1

BT-474 [7] = test: drug sensitivity score (DSS), CellTiter-Blue viability (DSS (AUC-based score)); higher = stronger viability inhibition; extreme values may be limits of the assay
Outline: (§2)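 The drug sensitivity score was derived from the area under a fitted dose-response curve. To obtain the curves, breast cancer cells (20 µl suspension) were plated into 384-well plates with compound at 5 or 9 concentrations and kept for 72 h. Viability was measured by CellTiter-Blue fluorescence at 560/590 nm, with each plate normalised to 0.1 % DMSO and a positive kill control.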

BT-549 = test: as above
Outline: as §2

DU-4475 [8] = test: as above
Outline: as §2

HCC1599 [9] = test: as above
Outline: as §2

HCC1937 [10] = test: as above
Outline: as §2

Hs578T = test: as above
Outline: as §2

MDA-MB-231 [11] = test: as above
Outline: as §2

MDA-MB-436 = test: as above
Outline: as §2

MDA-MB-453 [12] = test: as above
Outline: as §2

MFM-223 = test: as above
Outline: as §2

SMILES | normalised viability (BT-474 [1]; 100 nM) [%] | normalised viability (CAL-120; 100 nM) [%] | normalised viability (CAL-148; 10 nM) [%] | normalised viability (CAL-51; 10 nM) [%] | normalised viability (CAL-85-1; 10 nM) [%] | normalised viability (DU-4475 [2]; 10 nM) [%] | normalised viability (HCC1143; 100 nM) [%] | normalised viability (HCC1599 [3]; 100 nM) [%] | normalised viability (HCC1937 [4]; 100 nM) [%] | normalised viability (HDQ-P1; 10 nM) [%] | normalised viability (MDA-MB-231 [5]; 100 nM) [%] | normalised viability (MDA-MB-453 [6]; 10 nM) [%] | normalised viability (MDA-MB-468; 100 nM) [%] | drug sensitivity score (BT-474 [7]) | drug sensitivity score (BT-549) | drug sensitivity score (DU-4475 [8]) | drug sensitivity score (HCC1599 [9]) | drug sensitivity score (HCC1937 [10]) | drug sensitivity score (Hs578T) | drug sensitivity score (MDA-MB-231 [11]) | drug sensitivity score (MDA-MB-436) | drug sensitivity score (MDA-MB-453 [12]) | drug sensitivity score (MFM-223) | normalised viability (BT-474 [1]; 10 nM) [%] | normalised viability (CAL-120; 10 nM) [%] | normalised viability (CAL-148; 1 nM) [%] | normalised viability (CAL-51; 1 nM) [%] | normalised viability (CAL-85-1; 1 nM) [%] | normalised viability (DU-4475 [2]; 1 nM) [%] | normalised viability (HCC1143; 10 nM) [%] | normalised viability (HCC1599 [3]; 10 nM) [%] | normalised viability (HCC1937 [4]; 10 nM) [%] | normalised viability (HDQ-P1; 1 nM) [%] | normalised viability (MDA-MB-231 [5]; 10 nM) [%] | normalised viability (MDA-MB-453 [6]; 1 nM) [%] | normalised viability (MDA-MB-468; 10 nM) [%]
OC[C@H]1O[C@@H](n2cnc3c2N=CNC[C@H]3O)C[C@@H]1O [Pentostatin] | 109 | 103 | 111 | 88.4 | 103 | 109 | 112 | 97.6 | 106 | 106 | 94.9 | 104 | 107 | 0 | 0 | 0 | 0 | 0 | 0 | 0 | 0 | 0 | 0 | – | – | – | – | – | – | – | – | – | – | – | – | –
N#CC[C@H](C1CCCC1)n1cc(-c2ncnc3[nH]ccc23)cn1 [Ruxolitinib] | 107 | 97.5 | 102 | 84.9 | 96.4 | 101 | 107 | 99.3 | 81.1 | 74.4 | 90.8 | 93 | 100 | 0 | 0 | 0 | 0 | 1.92 | 0 | 0 | 0 | 0 | 0 | – | – | – | – | – | – | – | – | – | – | – | – | –
C=CC[C@@H]1/C=C(\C)C[C@H](C)C[C@H](OC)[C@H]2O[C@@](O)(C(=O)C(=O)N3CCCC[C@H]3C(=O)O[C@H](/C(C)=C/[C@@H]3CC[C@@H](O)[C@H](OC)C3)[C@H](C)[C@@H](O)CC1=O)[C@H](C)C[C@@H]2OC [Tacrolimus] | 113 | 110 | 102 | 101 | 101 | 112 | 110 | 123 | 93.7 | 119 | 112 | 112 | 119 | 0 | 0 | 0 | 0 | 0 | 0 | 0 | 0 | 0 | 0 | – | – | – | – | – | – | – | – | – | – | – | – | –
C=CCNC1=C2C[C@@H](C)C[C@H](OC)[C@H](O)[C@@H](C)/C=C(\C)[C@H](OC(N)=O)[C@@H](OC)/C=C\C=C(/C)C(=O)NC(=CC1=O)C2=O [Tanespimycin] | 35.3 | 72.7 | 94 | 118 | 98.4 | 106 | 33.4 | 61.2 | 37.3 | 93.5 | 114 | 81 | 109 | 21.3 | 24.3 | 28.2 | 16.3 | 18.2 | 20.5 | 9.87 | 25.2 | 32.6 | 25.8 | – | – | – | – | – | – | – | – | – | – | – | – | –
CO[C@H]1C[C@@H]2CC[C@@H](C)[C@@](O)(O2)C(=O)C(=O)N2CCCC[C@H]2C(=O)O[C@H]([C@H](C)C[C@@H]2CC[C@@H](OC(=O)C(C)(CO)CO)[C@H](OC)C2)CC(=O)[C@H](C)/C=C(\C)[C@@H](O)[C@@H](OC)C(=O)[C@H](C)C[C@H](C)/C=C/C=C/C=C/1C [Temsirolimus] | – | – | – | – | – | – | – | – | – | – | – | – | – | 12.1 | 18.1 | 15.7 | 0 | 0 | 17.3 | 0 | 5.67 | 31.8 | 20.8 | 69.3 | 55.8 | 54.5 | 73.9 | 65.7 | 89.8 | 77.1 | 90.8 | 56.5 | 90.9 | 68 | 32 | 68.3
C[C@]1(c2nc3c(C(N)=O)cccc3[nH]2)CCCN1 [Veliparib] | 101 | 74.8 | 89.1 | 113 | 90.8 | 98.2 | 75.6 | 116 | 85.4 | 103 | 92.3 | 99.4 | 97.6 | 0 | 0 | 0 | 0 | 0 | 0 | 0 | 0 | 0 | 0 | – | – | – | – | – | – | – | – | – | – | – | – | –
CC[C@]1(O)C[C@@H]2CN(CCc3c([nH]c4ccccc34)[C@@](C(=O)OC)(c3cc4c(cc3OC)N(C)[C@H]3[C@@](O)(C(=O)OC)[C@H](OC(C)=O)[C@]5(CC)C=CCN6CC[C@]43[C@@H]65)C2)C1 [Vinblastine] | – | – | – | – | – | – | – | – | – | – | – | – | – | 21.8 | 25.2 | 13.7 | 7.99 | 32 | 30.7 | 27.7 | 18.7 | 20 | 13.1 | 49.7 | 19.1 | 107 | 114 | 101 | 102 | 40.6 | 107 | 20.6 | 106 | 20.1 | 98.4 | 39.3
